Assay results as given in ChEMBL document CHEMBL1649246, “Complete nucleotide sequences of plasmids pEK204, pEK499, and pEK516, encoding CTX-M enzymes in three major Escherichia coli lineages from the United Kingdom, all belonging to the international O25:H4-ST131 clone” (2009).
≈ marks a conversion by molar mass, not a printed value.

Assays:
Type in all cases: functional
[1] = system: Escherichia coli; experiment: Antimicrobial activity against Escherichia coli DH5[alpha]
[2] = system: Escherichia coli; experiment: Antimicrobial activity against Escherichia coli J53
[3] = system: Escherichia coli; experiment: Antimicrobial activity against Escherichia coli DH5[alpha] harboring pEK516 plasmid encoding CTX-M extended-spectrum beta-lactamases
[4] = system: Escherichia coli; experiment: Antimicrobial activity against Escherichia coli J53 harboring pEK499 plasmid encoding CTX-M extended-spectrum beta-lactamases
[5] = system: Escherichia coli; experiment: Antimicrobial activity against Escherichia coli J53 in presence of beta-lactamase inhibitor clavulanic acid
[6] = system: Escherichia coli; experiment: Antimicrobial activity against Escherichia coli J53 harboring pEK204 plasmid encoding CTX-M extended-spectrum beta-lactamases in presence of beta-lactamase inhibitor clavulanic acid
[7] = system: Escherichia coli; experiment: Antimicrobial activity against Escherichia coli J53 harboring pEK499 plasmid encoding CTX-M extended-spectrum beta-lactamases in presence of beta-lactamase inhibitor clavulanic acid
[8] = system: Escherichia coli; experiment: Antimicrobial activity against Escherichia coli DH5[alpha] harboring pEK516 plasmid encoding CTX-M extended-spectrum beta-lactamases in presence of beta-lactamase inhibitor clavulanic acid
[9] = system: Escherichia coli; experiment: Antimicrobial activity against Escherichia coli DH5[alpha] in presence of beta-lactamase inhibitor clavulanic acid
[10] = system: Escherichia coli; experiment: Antimicrobial activity against Escherichia coli J53 harboring pEK204 plasmid encoding CTX-M extended-spectrum beta-lactamases
[11] = system: Escherichia coli; experiment: Antimicrobial activity against Escherichia coli DH5[alpha] harboring pEK516 plasmid encoding CTX-M extended-spectrum beta-lactamases in presence of beta-lactamase inhibitor Tazobactam
[12] = system: Escherichia coli; experiment: Antimicrobial activity against Escherichia coli J53 in presence of beta-lactamase inhibitor Tazobactam
[13] = system: Escherichia coli; experiment: Antimicrobial activity against Escherichia coli DH5[alpha] in presence of beta-lactamase inhibitor Tazobactam
[14] = system: Escherichia coli; experiment: Antimicrobial activity against Escherichia coli J53 harboring pEK499 plasmid encoding CTX-M extended-spectrum beta-lactamases in presence of beta-lactamase inhibitor Tazobactam
[15] = system: Escherichia coli; experiment: Antimicrobial activity against Escherichia coli J53 harboring pEK204 plasmid encoding CTX-M extended-spectrum beta-lactamases in presence of beta-lactamase inhibitor Tazobactam

Row | Compound | MIC [1] [µg/mL] | MIC [2] [µg/mL] | MIC [3] [µg/mL] | MIC [4] [µg/mL] | MIC [10] [µg/mL] | other results
1 | C[C@@H](O)[C@H]1C(=O)N2C(C(=O)O)=C(S[C@@H]3CN[C@H](C(=O)Nc4cccc(C(=O)O)c4)C3)[C@H](C)[C@H]12 | ≤ 0.125 | ≤ 0.125 | – | – | – | –
2 | NCC[C@H](O)C(=O)N[C@@H]1C[C@H](N)[C@@H](O[C@H]2O[C@H](CN)[C@@H](O)[C@H](O)[C@H]2O)[C@H](O)[C@H]1O[C@H]1O[C@H](CO)[C@@H](O)[C@H](N)[C@H]1O [AMIKACIN] | 1 (≈ 1.71 µM) | ≤ 0.5 | 2 (≈ 3.42 µM) | 4 (≈ 6.83 µM) | – | –
3 | CC1(C)S[C@@H]2[C@H](NC(=O)[C@H](N)c3ccc(O)cc3)C(=O)N2[C@H]1C(=O)O [AMOXICILLIN] | – | – | – | – | – | MIC [5]: 8 µg/mL; MIC [6]: 16 µg/mL; MIC [7]: 32 µg/mL; MIC [8]: 16 µg/mL; MIC [9]: 8 µg/mL
4 | CC1(C)S[C@@H]2[C@H](NC(=O)[C@H](N)c3ccccc3)C(=O)N2[C@H]1C(=O)O [AMPICILLIN] | 16 (≈ 45.8 µM) | 8 (≈ 22.9 µM) | > 64 | > 64 | > 64 | –
5 | C[C@H]1[C@H](NC(=O)/C(=N\OC(C)(C)C(=O)O)c2csc(N)n2)C(=O)N1S(=O)(=O)O [AZTREONAM] | 0.25 (≈ 0.574 µM) | – | 32 (≈ 73.5 µM) | > 64 | 8 (≈ 18.4 µM) | –
6 | CO/N=C(\C(=O)N[C@@H]1C(=O)N2C(C(=O)O)=C(COC(C)=O)CS[C@H]12)c1csc(N)n1 [CEFOTAXIME] | 0.25 (≈ 0.549 µM) | ≤ 0.125 | 128 (≈ 281 µM) | 256 (≈ 562 µM) | 64 (≈ 141 µM) | MIC [5]: ≤ 0.06 µg/mL; MIC [6]: 0.125 µg/mL; MIC [7]: 0.125 µg/mL; MIC [9]: ≤ 0.06 µg/mL
7 | CO[C@@]1(NC(=O)Cc2cccs2)C(=O)N2C(C(=O)O)=C(COC(N)=O)CS[C@@H]21 [CEFOXITIN] | 8 (≈ 18.7 µM) | 8 (≈ 18.7 µM) | 8 (≈ 18.7 µM) | 8 (≈ 18.7 µM) | 8 (≈ 18.7 µM) | –
8 | CO/N=C(\C(=O)N[C@@H]1C(=O)N2C(C(=O)[O-])=C(C[n+]3cccc4c3CCC4)CS[C@H]12)c1csc(N)n1 [CEFPIROME] | ≤ 0.125 | ≤ 0.125 | 64 (≈ 124 µM) | > 64 | 16 (≈ 31.1 µM) | MIC [5]: ≤ 0.06 µg/mL; MIC [9]: ≤ 0.06 µg/mL
9 | CC(C)(O/N=C(\C(=O)N[C@@H]1C(=O)N2C(C(=O)[O-])=C(C[n+]3ccccc3)CS[C@H]12)c1csc(N)n1)C(=O)O [CEFTAZIDIME] | 0.25 (≈ 0.457 µM) | 0.25 (≈ 0.457 µM) | 16 (≈ 29.3 µM) | 64 (≈ 117 µM) | 2 (≈ 3.66 µM) | MIC [5]: 0.25 µg/mL; MIC [6]: 0.25 µg/mL; MIC [7]: 0.5 µg/mL; MIC [8]: 0.25 µg/mL; MIC [9]: 0.25 µg/mL
10 | O=C(N[C@H](CO)[C@H](O)c1ccc([N+](=O)[O-])cc1)C(Cl)Cl [CHLORAMPHENICOL] | 2 (≈ 6.19 µM) | 2 (≈ 6.19 µM) | 2 (≈ 6.19 µM) | 2 (≈ 6.19 µM) | 2 (≈ 6.19 µM) | –
11 | O=C(O)c1cn(C2CC2)c2cc(N3CCNCC3)c(F)cc2c1=O [CIPROFLOXACIN] | ≤ 0.125 | ≤ 0.125 | – | – | – | –
12 | C[C@@H](O)[C@H]1C(=O)N2C(C(=O)O)=C(SCCNC=N)C[C@H]12 [IMIPENEM ANHYDROUS] | 0.5 (≈ 1.67 µM) | 0.25 (≈ 0.835 µM) | – | – | – | –
13 | C[C@@H](O)[C@H]1C(=O)N2C(C(=O)O)=C(S[C@@H]3CN[C@H](C(=O)N(C)C)C3)[C@H](C)[C@H]12 [MEROPENEM] | ≤ 0.06 | ≤ 0.06 | – | – | – | –
14 | CN(C)c1ccc(O)c2c1C[C@H]1C[C@H]3[C@H](N(C)C)C(O)=C(C(N)=O)C(=O)[C@@]3(O)C(O)=C1C2=O [MINOCYCLINE] | 0.25 (≈ 0.546 µM) | 0.25 (≈ 0.546 µM) | 4 (≈ 8.74 µM) | 2 (≈ 4.37 µM) | 0.25 (≈ 0.546 µM) | –
15 | CCN1CCN(C(=O)N[C@@H](C(=O)N[C@@H]2C(=O)N3[C@@H]2SC(C)(C)[C@@H]3C(=O)O)c2ccccc2)C(=O)C1=O [PIPERACILLIN] | 4 (≈ 7.73 µM) | 4 (≈ 7.73 µM) | 64 (≈ 124 µM) | > 64 | > 64 | MIC [11]: 4 µg/mL; MIC [12]: 4 µg/mL; MIC [13]: 4 µg/mL; MIC [14]: 16 µg/mL; MIC [15]: 4 µg/mL
16 | CN[C@@H]1[C@H](O[C@H]2[C@H](O[C@H]3[C@H](O)[C@@H](O)[C@H](N=C(N)N)[C@@H](O)[C@@H]3N=C(N)N)O[C@@H](C)[C@]2(O)C=O)O[C@@H](CO)[C@H](O)[C@H]1O [STREPTOMYCIN] | 1 (≈ 1.72 µM) | 1 (≈ 1.72 µM) | 0.5 (≈ 0.86 µM) | 32 (≈ 55 µM) | 2 (≈ 3.44 µM) | –
17 | Cc1cc(NS(=O)(=O)c2ccc(N)cc2)no1 [SULFAMETHOXAZOLE] | 2 (≈ 7.9 µM) | 16 (≈ 63.2 µM) | 2 (≈ 7.9 µM) | > 1020 | 16 (≈ 63.2 µM) | –
18 | CN(C)[C@@H]1C(O)=C(C(N)=O)C(=O)[C@@]2(O)C(O)=C3C(=O)c4c(O)cccc4[C@@](C)(O)[C@H]3C[C@@H]12 [TETRACYCLINE] | 1 (≈ 2.25 µM) | 1 (≈ 2.25 µM) | 32 (≈ 72 µM) | 32 (≈ 72 µM) | 1 (≈ 2.25 µM) | –
19 | CN(C)c1cc(NC(=O)CNC(C)(C)C)c(O)c2c1C[C@H]1C[C@H]3[C@H](N(C)C)C(O)=C(C(N)=O)C(=O)[C@@]3(O)C(O)=C1C2=O [TIGECYCLINE] | ≤ 0.25 | ≤ 0.25 | – | – | – | –
20 | NC[C@H]1O[C@H](O[C@H]2[C@H](O)[C@@H](O[C@H]3O[C@H](CO)[C@@H](O)[C@H](N)[C@H]3O)[C@H](N)C[C@@H]2N)[C@H](N)C[C@@H]1O [TOBRAMYCIN] | 0.5 (≈ 1.07 µM) | 0.25 (≈ 0.535 µM) | 8 (≈ 17.1 µM) | 8 (≈ 17.1 µM) | 0.5 (≈ 1.07 µM) | –
21 | COc1cc(Cc2cnc(N)nc2N)cc(OC)c1OC [TRIMETHOPRIM] | 0.06 (≈ 0.207 µM) | 0.06 (≈ 0.207 µM) | 0.03 (≈ 0.103 µM) | > 32 | 0.06 (≈ 0.207 µM) | –
22 | COLISTIN | < 0.5 | < 0.5 | < 0.5 | < 0.5 | < 0.5 | –
23 | GENTAMICIN | – | 0.25 | 8 | 0.25 | 0.25 | –
